Reference: patent US20200155434A1, “SKIN CLEANSING COMPOSITION” (KAO CORPORATION, priority 2017, published 2020)

What was measured:
[1] = Detergency against keratotic plug during cleansing (penetration and collapse under digital microscope); design: species or system human; details: Table 1 samples; for Collapse of keratotic plugs in contact with the sample (in words): assumption of cleansing; for Penetration of the sample into keratotic plugs (in words): contact with sample for 1 minute
Method: Keratotic plugs in the nasal region were removed with “Biore Nose Pack (manufactured by Kao Corporation)”, the resulting keratotic plugs on the pack were gently taken out with tweezers.
The resulting keratotic plugs were placed on a slide glass and were covered with a cover glass, and 0.05 mL of a sample was dropwise added to an edge of the cover glass. Consequently, the sample entered into the gap between the slide glass and the cover glass by capillary phenomenon and was brought into contact with the keratotic plugs. The contact of the keratotic plugs and the sample was recorded with a digital microscope (VHX-5000, manufactured by Keyence Corporation, magnification: 150×), and the penetration of the sample into the keratotic plugs and the collapse state of the keratotic plugs were evaluated after one minute from the contact of the keratotic plugs with the sample. The results of each evaluation are shown in the columns “Keratotic plug detergency (penetration)” and “Keratotic plug detergency (during cleansing)” in Tables. The measurements were performed at 25° C.
The penetration was relatively evaluated by criteria with 11 ratings starting from the rating 1 “the sample hardly penetrated into the keratotic plug” to the rating 11 “the sample penetrated to the center of the keratotic plug”. The collapsibility by the detergency against keratotic plug was relatively evaluated by criteria with 11 ratings starting from the rating 1 “almost no change is observed in the external appearance of the keratotic plug” to the rating 11 “peeling or separation is observed in the area from the surface layer to the central portion of the keratotic plug (the initial appearance of the keratotic plug is not retained)”.

[2] = Detergency against keratotic plug after washing with water; design: species or system human; details: sample substituted with water; Table 1 samples
Method: After one minute from the contact of the keratotic plugs with the sample, Kimwipes (registered trademark) was brought into contact with an edge of the cover glass to remove the sample under the cover glass. Then, 0.05 mL of water was gradually dropwise added to an edge of the cover glass. The sample dropwise-added with water was recorded with the digital microscope, and the collapse state of the keratotic plugs was evaluated after one minute from the contact of the keratotic plugs with water according to the criteria for evaluating collapsibility of the keratotic plugs. The results of the evaluation are shown in the column “Keratotic plug detergency (during washing with water)” in Table. The measurements were performed at 25° C.

[3] = at 25° C.; cited from earlier work
[4] = cited from earlier work
[5] = tested on: insoluble protein (seine protein); test: Effect of suppressing protein aggregation; type: physicochemical; details: Table 1 sample
Method: Thirty milliliters of a sample and 0.06 g of an insoluble protein (seine protein) were placed in a 35-mL standard glass bottle, and the concentration of the insoluble protein was adjusted to 0.2 mass % (test sample). Separately, a standard sample was prepared by using water instead of the sample and adjusting the concentration of the insoluble protein to 0.2 mass %. Subsequently, the standard glass bottles were sufficiently shaken and stirred up and down (shake width: 15 cm, 20 times at a rate of 5 times for 3 seconds) in a thermostatic chamber of 25° C. and were left to stand for 3 minutes. The precipitation state of the insoluble protein was then visually verified, and the ratio of the amount of the precipitated standard sample to the amount of the precipitated test sample (the height of the precipitate in each standard glass bottle was measured as the precipitation amount), (precipitation amount of standard sample)/(precipitation amount of test sample), was calculated. A higher ratio indicates a higher effect of suppressing protein aggregation.

Row | Molecule | Collapse of keratotic plugs in contact with the sample (in words) [1] | Penetration of the sample into keratotic plugs (in words) [1] | Collapse of keratotic plugs during washing with water (in words) [2] | pKa [3] | Solubility in water (in words) [4] | Action on proteins (in words) [5]
1 | O=P([O-])([O-])O.[Na+].[Na+] [disodium hydrogen phosphate] | collapse of the keratotic plugs did not progress | hardly penetrated into keratotic plugs | collapse of keratotic plugs did not progress | – | – | –
2 | CC(C)(N)CO [AMP, 2-amino-2-methyl-1-propanol] | – | – | – | 9.72 | readily dissolved in water | –
3 | O=C([O-])O.[Na+] [sodium hydrogen carbonate] | collapse of the keratotic plugs did not progress | hardly penetrated into keratotic plugs | collapse of keratotic plugs did not progress | – | – | –
4 | NC(CO)(CO)CO [Tris, 2-amino-2-hydroxymethyl-1,3-propanediol] | – | penetrated into keratotic plugs | further accelerating the collapse of keratotic plugs | 8.03 | readily dissolved in water | –
5 | O=P([O-])([O-])[O-].[Na+].[Na+].[Na+] [trisodium phosphate] | collapse of the keratotic plugs did not progress | hardly penetrated into keratotic plugs | collapse of keratotic plugs did not progress | – | – | –
6 | CC(N)(CO)CO [AMPD, 2-amino-2-methyl-1,3-propanediol] | – | – | – | 8.76 | – | –
7 | sodium polyoxyethylene (2) lauryl ether sulfate [POE (2) sodium lauryl sulfate] | collapse of the keratotic plugs did not progress | hardly penetrated into the keratotic plugs | – | – | – | dissolve the proteins
